Data as given in article PMC9412374, “Design, Synthesis, and Development of pyrazolo[1,5-a]pyrimidine Derivatives as a Novel Series of Selective PI3Kδ Inhibitors: Part I—Indole Derivatives” (Pharmaceuticals, 2022).
Where two headings read alike, the source gives them in different places.

Experiments:
Type in all cases: biochemical
PI3Kδ = target: T1, PI3Kδ (Homo sapiens, UniProt O00329); assay: In vitro kinase inhibition assay for PI3K (ADP-Glo), PI3Kδ; details: recombinant kinase, mean of two independent experiments, read-out: IC50 PI3K δ
T1 construct: purchased Merck Millipore
Description: (§1) Tested compounds were dissolved in 100% DMSO, and obtained solutions were serially diluted in 1× reaction buffer. The recombinant kinase solution was diluted in a reaction mixture comprising 5× reaction buffer, respective compound solution (1 mM sodium diacetate 4,5-bisphosphate phosphatidylinositol (PIP2) solution in 40 mM Tris buffer), and water. In a 96-wells plate, 5 μL of compound solutions and 15 μL of the kinase solution in the reaction mixture were added per well. To initiate the interaction of chemical compounds to be tested with the enzyme, the plate was incubated for 10 min at a suitable temperature in a plate thermostat with orbital shaking at 600 rpm. Negative control wells contained all the above reagents except tested compound and kinase, and positive control wells contained all the above reagents except tested compounds. […] Subsequently, the plate was incubated for 1 h at 25 or 30 °C (depending on the PI3K isoform tested) in a plate thermostat with orbital shaking of the plate contents at 600 rpm. The reaction conditions are combined in the table below (Table 6).
(§2) Detection of ADP formed in the enzymatic reaction was then performed using ADP-Glo Kinase Assay™ (Promega, Madison, WI, USA). To the wells of a 96-well plate, 25 μL of ADP-Glo Reagent™ was added, and the plate was incubated for 40 min at 25 °C in a plate thermostat with orbital shaking at 600 rpm. Then 50 μL of Kinase Detection Reagent were added to each well, and the plate was incubated for 40 min at 25 °C in a plate thermostat with orbital shaking at 600 rpm. Once the incubation was complete, the luminescence intensity was measured using a Victor Light luminometer (Perkin Elmer, Inc., Waltham, MA, USA). IC50 values were determined based on luminescence intensity measured in wells containing tested compounds at different concentrations in relation to control wells. […] Each compound was tested at least in quadruplicates (4 wells) on two 96-well plates utilizing at least 4 wells for each control.

PI3Kα = target: T2, PI3Kα (Homo sapiens, UniProt P42336); assay: In vitro kinase inhibition assay for PI3K (ADP-Glo), PI3Kα; details: for IC50: IC50 PI3K α, recombinant kinase, ADP-Glo, mean of two independent experiments; for Fold Selectivity α/δ: ratio of IC50 PI3Kα to IC50 PI3Kδ
T2 construct: purchased Carna Biosciences
Description: Tested compounds were dissolved in 100% DMSO, and obtained solutions were serially diluted in 1× reaction buffer. The recombinant kinase solution was diluted in a reaction mixture comprising 5× reaction buffer, respective compound solution (1 mM sodium diacetate 4,5-bisphosphate phosphatidylinositol (PIP2) solution in 40 mM Tris buffer), and water. In a 96-wells plate, 5 μL of compound solutions and 15 μL of the kinase solution in the reaction mixture were added per well. To initiate the interaction of chemical compounds to be tested with the enzyme, the plate was incubated for 10 min at a suitable temperature in a plate thermostat with orbital shaking at 600 rpm. Negative control wells contained all the above reagents except tested compound and kinase, and positive control wells contained all the above reagents except tested compounds. The enzymatic reaction was initiated by adding 5 μL of 150 μM ATP solution. Subsequently, the plate was incubated for 1 h at 25 or 30 °C (depending on the PI3K isoform tested) in a plate thermostat with orbital shaking of the plate contents at 600 rpm. The reaction conditions are combined in the table below (Table 6).
Detection of ADP formed in the enzymatic reaction was then performed using ADP-Glo Kinase Assay™ (Promega, Madison, WI, USA). To the wells of a 96-well plate, 25 μL of ADP-Glo Reagent™ was added, and the plate was incubated for 40 min at 25 °C in a plate thermostat with orbital shaking at 600 rpm. Then 50 μL of Kinase Detection Reagent were added to each well, and the plate was incubated for 40 min at 25 °C in a plate thermostat with orbital shaking at 600 rpm. Once the incubation was complete, the luminescence intensity was measured using a Victor Light luminometer (Perkin Elmer, Inc., Waltham, MA, USA). IC50 values were determined based on luminescence intensity measured in wells containing tested compounds at different concentrations in relation to control wells. These values were calculated with Graph Pad 5.03 software by fitting the curve using non-linear regression. Each compound was tested at least in quadruplicates (4 wells) on two 96-well plates utilizing at least 4 wells for each control. Averaged results of inhibition activity respective to specific isoforms of PI3K kinases for tested compounds are presented as IC50 values in Table 1, Table 2, Table 3 and Table 4.

PI3Kβ = target: T3, PI3Kβ (Homo sapiens, UniProt P42338); assay: In vitro kinase inhibition assay for PI3K (ADP-Glo), PI3Kβ; details: for Fold Selectivity β/δ: ratio of IC50 PI3Kβ to IC50 PI3Kδ
T3 construct: purchased Merck Millipore
Description: as §1, §2

PI3Kγ = target: T4, PI3Kγ (Homo sapiens, UniProt P48736); assay: In vitro kinase inhibition assay for PI3K (ADP-Glo), PI3Kγ; details: for Fold Selectivity γ/δ: ratio of IC50 PI3Kγ to IC50 PI3Kδ
T4 construct: purchased Merck Millipore
Description: as §1, §2

[1] = recombinant kinase, ADP-Glo, mean of two independent experiments, read-out: IC50 PI3K β
[2] = recombinant kinase, ADP-Glo, mean of two independent experiments, read-out: IC50 PI3K γ

T1 sequence (P27986 whole entry): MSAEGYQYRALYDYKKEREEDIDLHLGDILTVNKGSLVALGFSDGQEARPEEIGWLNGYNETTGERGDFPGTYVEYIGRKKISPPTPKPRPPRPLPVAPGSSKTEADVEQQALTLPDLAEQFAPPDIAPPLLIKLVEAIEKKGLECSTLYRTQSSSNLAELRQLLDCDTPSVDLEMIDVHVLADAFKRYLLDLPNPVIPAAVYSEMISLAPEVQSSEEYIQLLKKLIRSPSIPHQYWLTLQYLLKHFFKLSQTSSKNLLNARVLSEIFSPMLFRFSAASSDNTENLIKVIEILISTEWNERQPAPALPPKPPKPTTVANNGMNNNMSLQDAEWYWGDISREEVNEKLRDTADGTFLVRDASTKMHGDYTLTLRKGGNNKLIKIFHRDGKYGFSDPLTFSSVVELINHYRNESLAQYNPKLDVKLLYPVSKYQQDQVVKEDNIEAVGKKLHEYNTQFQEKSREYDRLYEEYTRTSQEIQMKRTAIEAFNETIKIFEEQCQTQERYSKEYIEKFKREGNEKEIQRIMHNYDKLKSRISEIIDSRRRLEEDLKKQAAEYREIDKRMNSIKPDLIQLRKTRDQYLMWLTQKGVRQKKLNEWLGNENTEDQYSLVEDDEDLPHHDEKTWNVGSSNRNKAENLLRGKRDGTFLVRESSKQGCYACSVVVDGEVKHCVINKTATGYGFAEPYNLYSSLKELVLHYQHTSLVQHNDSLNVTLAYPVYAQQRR
T1 sequence (O00329 whole entry): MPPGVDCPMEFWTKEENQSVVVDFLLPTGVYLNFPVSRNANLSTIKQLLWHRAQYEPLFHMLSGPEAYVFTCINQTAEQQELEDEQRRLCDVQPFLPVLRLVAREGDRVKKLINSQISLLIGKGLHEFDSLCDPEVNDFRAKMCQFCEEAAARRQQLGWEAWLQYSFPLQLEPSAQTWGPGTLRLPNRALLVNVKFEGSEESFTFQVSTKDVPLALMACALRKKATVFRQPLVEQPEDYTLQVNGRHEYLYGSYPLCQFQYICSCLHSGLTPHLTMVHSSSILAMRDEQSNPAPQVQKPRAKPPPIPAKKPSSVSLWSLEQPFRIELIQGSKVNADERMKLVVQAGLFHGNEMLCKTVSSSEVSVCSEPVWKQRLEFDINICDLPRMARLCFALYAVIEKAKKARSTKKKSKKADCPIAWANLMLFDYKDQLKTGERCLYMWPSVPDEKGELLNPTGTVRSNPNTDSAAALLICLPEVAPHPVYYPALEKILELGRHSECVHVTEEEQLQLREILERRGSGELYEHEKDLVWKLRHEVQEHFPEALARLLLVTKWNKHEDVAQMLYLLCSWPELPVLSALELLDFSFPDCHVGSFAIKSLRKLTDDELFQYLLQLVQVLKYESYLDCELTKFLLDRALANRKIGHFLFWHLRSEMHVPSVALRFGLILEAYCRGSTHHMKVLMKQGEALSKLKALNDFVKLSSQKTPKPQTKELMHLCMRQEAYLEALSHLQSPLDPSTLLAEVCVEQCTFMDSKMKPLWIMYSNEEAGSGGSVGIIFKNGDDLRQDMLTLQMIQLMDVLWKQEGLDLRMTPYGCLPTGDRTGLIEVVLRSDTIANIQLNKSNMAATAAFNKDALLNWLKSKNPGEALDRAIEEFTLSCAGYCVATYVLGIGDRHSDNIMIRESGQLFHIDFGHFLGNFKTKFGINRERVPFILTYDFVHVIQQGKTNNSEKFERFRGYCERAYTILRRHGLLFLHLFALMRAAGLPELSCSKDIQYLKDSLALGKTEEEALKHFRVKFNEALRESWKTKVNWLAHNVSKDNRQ
T3 sequence (P42338 whole entry): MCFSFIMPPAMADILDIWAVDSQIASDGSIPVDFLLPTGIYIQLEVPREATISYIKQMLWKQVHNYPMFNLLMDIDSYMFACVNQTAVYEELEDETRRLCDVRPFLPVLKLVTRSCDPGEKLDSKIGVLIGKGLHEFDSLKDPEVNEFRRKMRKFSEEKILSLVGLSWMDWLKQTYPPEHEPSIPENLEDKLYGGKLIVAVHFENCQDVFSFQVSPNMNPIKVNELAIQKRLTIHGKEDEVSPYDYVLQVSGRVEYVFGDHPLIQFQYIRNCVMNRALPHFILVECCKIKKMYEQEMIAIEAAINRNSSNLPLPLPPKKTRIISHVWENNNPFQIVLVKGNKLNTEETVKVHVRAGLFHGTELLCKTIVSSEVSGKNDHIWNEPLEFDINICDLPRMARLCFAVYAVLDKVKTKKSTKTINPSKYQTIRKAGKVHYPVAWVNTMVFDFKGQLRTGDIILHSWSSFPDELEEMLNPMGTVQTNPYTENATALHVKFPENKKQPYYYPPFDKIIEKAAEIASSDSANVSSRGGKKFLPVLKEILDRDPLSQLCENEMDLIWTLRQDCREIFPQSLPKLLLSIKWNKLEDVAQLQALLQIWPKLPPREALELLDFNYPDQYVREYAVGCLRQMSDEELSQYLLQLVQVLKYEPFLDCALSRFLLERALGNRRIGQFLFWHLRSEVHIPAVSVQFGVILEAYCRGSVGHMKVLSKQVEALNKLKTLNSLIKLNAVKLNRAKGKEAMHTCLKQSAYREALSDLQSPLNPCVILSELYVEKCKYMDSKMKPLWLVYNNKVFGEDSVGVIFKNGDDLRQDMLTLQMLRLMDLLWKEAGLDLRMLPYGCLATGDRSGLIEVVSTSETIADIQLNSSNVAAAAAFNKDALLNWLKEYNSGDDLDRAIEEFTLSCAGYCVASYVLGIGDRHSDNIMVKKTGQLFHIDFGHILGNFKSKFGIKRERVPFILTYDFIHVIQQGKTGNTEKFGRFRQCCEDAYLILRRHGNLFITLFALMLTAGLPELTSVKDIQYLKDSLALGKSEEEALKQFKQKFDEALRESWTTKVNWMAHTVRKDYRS
T3 sequence (P27986 whole entry, further chain): as the sequence (P27986 whole entry) above
T4 sequence (P48736 whole entry): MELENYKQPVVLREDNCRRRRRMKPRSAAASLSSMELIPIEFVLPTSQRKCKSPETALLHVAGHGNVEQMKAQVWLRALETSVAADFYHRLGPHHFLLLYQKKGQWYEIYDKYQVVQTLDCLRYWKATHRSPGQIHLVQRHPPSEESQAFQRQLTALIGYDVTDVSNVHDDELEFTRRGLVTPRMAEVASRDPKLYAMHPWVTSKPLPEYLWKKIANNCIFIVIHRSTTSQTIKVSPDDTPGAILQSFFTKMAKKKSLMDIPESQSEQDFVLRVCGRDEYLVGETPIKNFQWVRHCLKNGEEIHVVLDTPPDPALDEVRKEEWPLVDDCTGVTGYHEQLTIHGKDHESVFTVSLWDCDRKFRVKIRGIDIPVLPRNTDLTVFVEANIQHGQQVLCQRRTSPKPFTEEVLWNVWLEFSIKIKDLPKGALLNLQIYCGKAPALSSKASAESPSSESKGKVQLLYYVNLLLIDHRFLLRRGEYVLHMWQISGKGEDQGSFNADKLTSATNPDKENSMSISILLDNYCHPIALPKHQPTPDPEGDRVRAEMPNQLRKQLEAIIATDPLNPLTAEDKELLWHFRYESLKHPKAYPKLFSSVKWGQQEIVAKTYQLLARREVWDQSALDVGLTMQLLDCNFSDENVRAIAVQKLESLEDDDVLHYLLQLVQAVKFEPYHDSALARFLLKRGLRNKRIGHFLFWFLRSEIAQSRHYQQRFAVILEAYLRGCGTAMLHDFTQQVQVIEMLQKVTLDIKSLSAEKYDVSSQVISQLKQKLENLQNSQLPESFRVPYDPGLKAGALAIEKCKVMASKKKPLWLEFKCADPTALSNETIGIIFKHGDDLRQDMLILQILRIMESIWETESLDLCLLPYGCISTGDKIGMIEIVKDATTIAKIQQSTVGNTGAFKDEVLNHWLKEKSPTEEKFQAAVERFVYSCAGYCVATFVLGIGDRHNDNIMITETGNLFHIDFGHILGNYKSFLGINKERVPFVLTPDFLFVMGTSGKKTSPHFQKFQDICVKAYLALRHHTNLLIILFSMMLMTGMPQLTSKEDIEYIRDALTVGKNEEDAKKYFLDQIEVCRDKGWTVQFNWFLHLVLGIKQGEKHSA
T2 sequence (P42336 whole entry): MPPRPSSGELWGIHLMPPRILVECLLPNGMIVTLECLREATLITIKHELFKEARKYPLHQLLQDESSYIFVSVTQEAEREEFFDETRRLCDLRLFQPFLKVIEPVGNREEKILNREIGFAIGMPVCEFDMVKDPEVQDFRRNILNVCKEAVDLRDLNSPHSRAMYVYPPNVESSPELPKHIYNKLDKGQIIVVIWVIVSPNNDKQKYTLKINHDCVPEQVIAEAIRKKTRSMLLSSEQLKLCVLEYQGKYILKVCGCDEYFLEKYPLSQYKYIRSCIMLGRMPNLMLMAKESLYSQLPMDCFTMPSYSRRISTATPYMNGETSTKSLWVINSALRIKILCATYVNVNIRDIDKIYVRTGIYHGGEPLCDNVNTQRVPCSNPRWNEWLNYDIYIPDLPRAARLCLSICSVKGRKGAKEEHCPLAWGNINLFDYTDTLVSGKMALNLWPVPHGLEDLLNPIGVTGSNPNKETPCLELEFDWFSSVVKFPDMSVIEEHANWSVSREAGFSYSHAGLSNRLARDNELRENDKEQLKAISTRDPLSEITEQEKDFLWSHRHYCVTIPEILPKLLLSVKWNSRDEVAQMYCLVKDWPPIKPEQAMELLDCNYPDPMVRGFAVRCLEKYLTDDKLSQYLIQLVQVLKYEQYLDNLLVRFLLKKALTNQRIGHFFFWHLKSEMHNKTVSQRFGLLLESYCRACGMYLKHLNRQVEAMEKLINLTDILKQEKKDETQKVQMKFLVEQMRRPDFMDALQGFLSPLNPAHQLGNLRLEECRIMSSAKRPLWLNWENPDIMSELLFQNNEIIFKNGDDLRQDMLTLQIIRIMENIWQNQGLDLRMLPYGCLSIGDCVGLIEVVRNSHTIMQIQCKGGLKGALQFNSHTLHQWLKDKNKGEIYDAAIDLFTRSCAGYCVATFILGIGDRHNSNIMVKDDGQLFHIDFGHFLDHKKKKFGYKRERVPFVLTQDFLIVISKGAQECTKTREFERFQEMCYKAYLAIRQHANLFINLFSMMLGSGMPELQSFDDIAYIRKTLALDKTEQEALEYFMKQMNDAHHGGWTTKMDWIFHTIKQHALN
T2 sequence (P27986 whole entry partner): as the sequence (P27986 whole entry) above

Row | Structure (SMILES) | IC50 (PI3Kδ) [µM] | IC50 (PI3Kα) [µM] | Fold Selectivity α/δ (PI3Kα) | Fold Selectivity β/δ (PI3Kβ) | IC50 (PI3Kβ; [1]) [µM] | Fold Selectivity γ/δ (PI3Kγ) | IC50 (PI3Kγ; [2]) [µM] | IC50 (PI3Kγ) [µM] | IC50 (PI3Kβ) [µM]
1 | CN(C)C1CCN(Cc2cc3nc(-c4cccc5[nH]ccc45)cc(N4CCOCC4)n3n2)CC1 [Compound 24, 2-((4-(dimethylamino)piperidin-1-yl)methyl)-5-(1H-indol-4-yl)-7-(morpholin-4-yl)pyrazolo[1,5-a]pyrimidine] | 0.037 | 6.38 | 172 | 389 | 14.4 | 1332 | 49.3 |  | 
2 | CCN1CCN(Cc2cc3nc(-c4cccc5[nH]ccc45)cc(N4CCOCC4)n3n2)CC1 [Compound 34, 2-((4-ethylpiperazin-1-yl)methyl)-5-(1H-indol-4-yl)-7-(morpholin-4-yl)pyrazolo[1,5-a]pyrimidine] | 0.043 | 34.3 | 798 | 253 | 10.9 | >1395 | > 60 |  | 
3 | CC(C)(O)C1CCN(Cc2cc3nc(-c4cccc5[nH]ccc45)cc(N4CCOCC4)n3n2)CC1 [Compound 36, 2-((4-(2-hydroxypropan-2-yl)piperidin-1-yl)methyl)-5-(1H-indol-4-yl)-7-(morpholin-4-yl)pyrazolo[1,5-a]pyrimidine] | 0.013 | 15.8 | 1217 | 332 | 4.31 | 1223 |  | 15.9 | 
4 | CC(C)(C(N)=O)N1CCN(Cc2cc3nc(-c4cccc5[nH]ccc45)cc(N4CCOCC4)n3n2)CC1 [Compound 38, 2-(4-((5-(1H-indol-4-yl)-7-(morpholin-4-yl)pyrazolo[1,5-a]pyrimidin-2-yl)methyl)piperazin-1-yl)-2-methylpropionamide] | 0.041 | 17.7 | 433 | 146 | 5.99 | 428 |  | 17.5 | 
5 | c1cc(-c2cc(N3CCOCC3)n3nc(CN4CCN(C5CC5)CC4)cc3n2)c2cc[nH]c2c1 [Compound 39, 2-((4-cyclopropylpiperazin-1-yl)methyl)-5-(1H-indol-4-yl)-7-(morpholin-4-yl)pyrazolo[1,5-a]pyrimidine] | 0.058 | 25.3 | 436 | 259 | 15 |  |  |  | 
6 | CC(C)(C)C1CCN(Cc2cc3nc(-c4cccc5[nH]ccc45)cc(N4CCOCC4)n3n2)CC1 [Compound 41, 2-((4-tert-butylpiperidin-1-yl)methyl)-5-(1H-indol-4-yl)-7-(morpholin-4-yl)pyrazolo[1,5-a]pyrimidine] | 0.051 | 12.3 | 241 | 62 | 3.17 | 191 | 9.73 |  | 
7 | O=C(C1CC1)N1CCN(Cc2cc3nc(-c4cccc5[nH]ccc45)cc(N4CCOCC4)n3n2)CC1 [Compound 44, 2-((4-(cyclopropanecarbonyl)piperazin-1-yl)methyl)-5-(1H-indol-4-yl)-7-(morpholin-4-yl)pyrazolo[1,5-a]pyrimidine] | 0.022 | 1.27 | 58 | 332 | 7.31 | 38 | 0.846 |  | 
8 | CC(C)(O)C1CCN(Cc2cc3nc(-c4c(F)ccc5[nH]ccc45)cc(N4CCOCC4)n3n2)CC1 [Compound 49, 2-((4-(2-hydroxypropan-2-yl)piperidin-1-yl)methyl)-5-(5-fluoro-1H-indol-4-yl)-7-(morpholin-4-yl)pyrazolo[1,5-a]pyrimidine] | 0.04 | 34.4 | 860 | 283 | 11.3 | 1195 | 47.8 |  | 
9 | CC(C)(O)C1CCN(Cc2cc3nc(-c4cncc5[nH]ccc45)cc(N4CCOCC4)n3n2)CC1 [Compound 50, 2-((4-(2-hydroxypropan-2-yl)piperidin-1-yl)methyl)-5-(1H-pyrrolo [2,3-c]pyridin-4-yl)-7-(morpholin-4-yl)pyrazolo[1,5-a]pyrimidine] | 0.028 | 3.65 | 130 | 188 | 5.26 |  |  |  | 
10 | CC(C)(O)C1CCN(Cc2cc3nc(-c4ccnc5[nH]ccc45)cc(N4CCOCC4)n3n2)CC1 [Compound 51, 2-((4-(2-hydroxypropan-2-yl)piperidin-1-yl)methyl)-5-(1H-pyrrolo [2,3-b]pyridin-4-yl)-7-(morpholin-4-yl)pyrazolo[1,5-a]pyrimidine] | 0.023 | 9.75 | 424 | 1165 | 26.8 |  |  |  | 
11 | CC(C)(C)N1CCN(Cc2cc3nc(-c4c(F)ccc5[nH]ccc45)cc(N4CCOCC4)n3n2)CC1 [Compound 53, 2-((4-tert-butylpiperazin-1-yl)methyl)-5-(5-fluoro-1H-indol-4-yl)-7-(morpholin-4-yl)pyrazolo[1,5-a]pyrimidine] | 0.011 | 19.3 | 1754 | 1768 |  | >5455 | > 60 |  | 19.5
12 | CC(C)(C)N1CCN(Cc2cc3nc(-c4ccnc5[nH]ccc45)cc(N4CCOCC4)n3n2)CC1 [Compound 55, 2-((4-tert-butylpiperazin-1-yl)methyl)-5-(1H-pyrrolo [2,3-b]pyridin-4-yl)-7-(morpholin-4-yl)pyrazolo[1,5-a]pyrimidine] | 0.045 | 2.96 | 66 | 711 | 32 |  |  |  | 
